# Data from US5656669A, “Restorative neuropharmacological agent for motor and speech disturbance” (Sumitomo Pharmaceuticals Co., Ltd., priority 1994, dated 1997).
# Entries after “also recorded” stand apart in the source; their conditions may differ. Like-named read-outs stand apart in the source and are kept apart here.
# Assays:
# [1] = conventional pharmacological features; cited from earlier work
# [2] = tested on: aromatic L-amino acid decarboxylase; conditions: by aromatic L-amino acid decarboxylase; conventional pharmacological features; cited from earlier work
# physchem = format: physicochemical; conditions: titration method
# Description: (§1) L-threo-DOPS, whose molecular formula is C9 H11 NO5, is white or light brown crystals or crystalline powder with no taste or odor. […] It is difficult to measure a clear melting point or decomposition point for L-threo-DOPS. […] DL-threo-DOPS, which contains 50% L-threo-DOPS, can also be used in this invention. Hereafter, L-threo-DOPS and DL-threo-DOPS are generically denoted as "threo-DOPS".
# mice = conditions: cited from earlier work
# [3] = Side-effects in clinical subjects with speech disturbance; format: in vivo; conditions: clinical subjects with Broca aphasia
# Protocol: (§2) The clinical subjects for speech disturbance were 10 cases of Broca aphasia after stroke (3 males and 7 females, age 51-65 with an average of 58.6±1.6 years).
# (§3) First, without administration of droxidopa, the clinical subjects were evaluated with standard aphasia testing (SLAT). […] For 8 of the clinical subjects, 100 mg of droxidopa was administered once a day for a subsequent 2 weeks and evaluation was conducted using SLAT.
# rhesus monkeys [4] = conditions: oral 300, 1,000, 3,000 mg/kg/day, 3 months; cited from earlier work
# solubility = format: physicochemical
# Description: as §1
# [5] = Repeated 2-day administration after 1-2 weeks and halt of administration, motor functions; format: in vivo, clinical subjects
# Description: The administration of droxidopa to the clinical subjects was then halted, but the level of the improvement effect on motor functions was maintained.
# SD rats [6] = conditions: cited from earlier work; for perinatal and lactation period findings: oral
# SD rats [7] = conditions: oral, 12 months, cited from earlier work
# SD rats [8] = conditions: cited from earlier work
# beagle dogs [9] = conditions: cited from earlier work; for LD50: oral
# Rats, SD strain = conditions: cited from earlier work
# [10] = tested on: guinea pigs (Hartley strain, male); conditions: cited from earlier work
# [11] = Short term clinical testing, motor disturbance: Barthel index (ADL); format: in vivo, clinical subjects; conditions: of the 19 cases improved in 10-meter walking; 300 mg per day for 2 days
# Protocol: (§4) Clinical testing was conducted to evaluate the effects of the restorative neuropharmacological agent for motor and speech disturbance according to this invention.
# (§5) Clinical subjects for motor disturbance were 2 cases after cerebral aneurysm operations (subarachnoid hemorrhage), 9 cases of brain hemorrhage and 10 cases of brain infarction with chronic apoplectic paralysis, i.e. a total of 21 cases (12 males and 9 females, age 43-83 with an average 61.9±2.5 years). For these clinical subjects, the average time elapsed from the onset had occurred was 100 days.
# (§6) First, the clinical subjects received physical therapy without administration of droxidopa (L-DOPS), and then they were evaluated with FMS (Fugl-Meyer score), 10-meter walking and the Barthel index. The clinical subjects then received administration of 300 mg droxidopa (L-DOPS) per day for 2 days in addition to the physical therapy, and were evaluated with FMS. 10-meter walking and with the Barthel index.
# [12] = Speech observation on administration and on stopping administration, Broca aphasia after stroke; format: in vivo, clinical subjects
# Protocol: as §2, §3
# Administration of droxidopa to these clinical subjects was stopped after 2 weeks. As a result, speech was totally lost in 2 cases. Subsequently, administration of droxidopa was stopped twice and, in one case, speech was totally lost every time administration was stopped and restored when administration was resumed.
# beagle dogs [13] = conditions: oral 200, 600, 2,000 mg/kg/day, 3 months; cited from earlier work
# cultured cells = conditions: cited from earlier work
# [14] = Long term administration testing: Barthel index (ADL); format: in vivo, clinical subjects; conditions: for Improvement in ADL: individual case
# Protocol: Based on the above results, […] term administration testing was conducted.
# rhesus monkeys [15] = conditions: cited from earlier work; for LD50: oral
# rabbits = conditions: oral 30, 100, 300 mg/kg/day; cited from earlier work
# SD rats [16] = conditions: 3 months, cited from earlier work
# Mice, ICR strain = conditions: cited from earlier work
# [17] = Clinical testing, speech disturbance (Broca aphasia after stroke): standard aphasia testing (SLAT); format: in vivo, clinical subjects; conditions: after 2 weeks
# Protocol: as §2, §3
# [18] = Short term clinical testing, motor disturbance: FMS (Fugl-Meyer score); format: in vivo, clinical subjects; conditions: for Improvement in FMS: individual case
# Protocol: as §4, §5, §6
# SD rats [19] = conditions: oral 60, 200, 600 mg/kg/day, male and female; cited from earlier work
# microorganisms = conditions: cited from earlier work
# beagle dogs [20] = conditions: oral 125, 500, 2,000 mg/kg/day, 12 months; cited from earlier work
# [21] = Short term clinical testing, motor disturbance: 10-meter walking; format: in vivo, clinical subjects; conditions: of the 21 cases; 300 mg per day for 2 days
# Protocol: as §4, §5, §6
# [22] = Short term clinical testing: central-facial palsy; format: in vivo, clinical subjects; conditions: all of the 12 cases with central-facial palsy; 300 mg per day for 2 days; none of 6 control cases
# [23] = of the 21 cases, 300 mg per day for 2 days
compound,measurement,setting,value
N[C@H](C(=O)O)[C@H](O)c1ccc(O)c(O)c1 [threo-DOPS],passage through the blood-brain barrier,[1],passes through the blood-brain barrier into the brain
same,conversion to norepinephrine,[2],directly converted to 1-norepinephrine
"N[C@@H](C(=O)O)[C@H](O)c1ccc(O)c(O)c1 [L-threo-DOPS, (-)-(2R, 3R)-2-amino-3-hydroxy-3-(3,4-dihydroxyphenyl) propionic acid]",pKa,physchem,7.88
same,"mutagenicity, micronucleus testing",mice,no mutagenicity was observed
same,side-effects,[3],No serious side-effect was observed
same,subacute toxicity findings,rhesus monkeys [4],no abnormality was observed
same,solubility in ethanol,solubility; ethanol,dissolves very little
same,solubility in ether,solubility; ether,dissolves very little
same,solubility in glacial acetic acid,solubility; glacial acetic acid,dissolves very little
same,solubility in water,solubility; water,dissolves only slightly
same,cases with further improvement on repeated administration,[5]; 5 cases re-dosed for 2 consecutive days after 1-2 weeks,3 cases
same,level of the improvement effect on motor functions after administration was halted,[5]; after halting administration,maintained
same,"other influence, perinatal and lactation period","SD rats [6]; oral 60, 200, 600 mg/kg/day",No other influence was observed
same,perinatal and lactation period findings,SD rats [6]; 60 mg/kg or higher,suppression of neonatal development after birth was observed
same,perinatal and lactation period findings,SD rats [6]; 600 mg/kg,shortening of the pregnancy period was observed
same,chronic toxicity findings,SD rats [7]; 30 mg/kg/day and higher,"suppression of weight increases, an increase in thymus weight, necrosis of kidney uriniferous tubuli, degeneration of kidney glomeruli, etc. were observed"
same,chronic toxicity findings,SD rats [7]; 100 mg/kg/day and higher,"drooling, myocarditis and calcification of cardiac muscles, etc. were observed"
same,"other influence, organ forming period","SD rats [8]; oral 60, 200, 600 mg/kg/day",No other influence was observed
same,findings in fetuses,"SD rats [8]; oral, 200 mg/kg or higher, restorable after birth",lower body weights of fetuses and an increase in the occurrence of undulating ribs were observed
same,"general symptoms, acute toxicity",beagle dogs [9]; dogs,no abnormal symptom was observed
same,LD50,beagle dogs [9]; female,> 5000 mg/kg
same,LD50,beagle dogs [9]; male,> 5000 mg/kg
same,LD50,"Rats, SD strain; hypodermic, female",95 mg/kg
same,LD50,"Rats, SD strain; hypodermic, male",84 mg/kg
same,LD50,"Rats, SD strain; intravenous, female",19 mg/kg
same,LD50,"Rats, SD strain; intravenous, male",16 to 19 mg/kg
same,LD50,"Rats, SD strain; oral, female",> 10000 mg/kg
same,LD50,"Rats, SD strain; oral, male",> 10000 mg/kg
same,"general symptoms, acute toxicity","Rats, SD strain; rats","reduced voluntary motions, deep breathing and bradypnea were observed"
same,Endodermoreaction,[10],negative
same,PCA reaction,[10],negative
same,intra-gel sedimentation reaction,[10],negative
same,systemic anaphylaxis reaction,[10],negative
same,cases with improvement in the Barthel index (ADL),[11],one
same,speech after 2 days of administration,"[12]; 300 mg, 3 times a day for 2 days",speech improved
same,cases in which speech was totally lost after administration was stopped,[12]; administration stopped after 2 weeks,2 cases
same,cases in which speech was totally lost every time administration was stopped and restored when resumed,[12]; administration stopped twice,one
same,subacute toxicity findings,beagle dogs [13],no abnormality was observed
same,"mutagenicity, chromosome abnormality testing",cultured cells,no mutagenicity was observed
same,dependence of results on time elapsed since onset of the illness,[14]; 200-500 mg/day for 2 weeks to 2 months,independent of the time elapsed since onset of the illness
same,Improvement in ADL,"[14]; 200 mg per day × 2W, listed as L-DOPS",Improved; also recorded: No change
same,Improvement in ADL,[14]; 200 mg per day × 4W,No change
same,Improvement in ADL,[14]; 200 mg per day × 8W,Improved
same,Improvement in ADL,[14]; 300 mg per day × 3W,Improved
same,Improvement in ADL,[14]; 300 mg per day × 6W,Improved
same,Improvement in ADL,[14]; 300 mg per day × 7W,No change
same,Improvement in ADL,[14]; 500 mg per day × 6W,Improved
same,cases with improvement in the Barthel index (ADL),"[14]; of the 10 cases, 200-500 mg/day for 2 weeks to 2 months",7 cases
same,LD50,rhesus monkeys [15]; female,> 5000 mg/kg
same,LD50,rhesus monkeys [15]; male,> 5000 mg/kg
same,"general symptoms, acute toxicity",rhesus monkeys [15]; rhesus monkeys,no abnormal symptom was observed
same,"influence, organ forming period",rabbits,no influence on the rabbits was observed
same,subacute toxicity findings,"SD rats [16]; oral, 60 mg/kg/day and higher","suppressed voluntary motions, necrosis of kidney uriniferous tubuli, necrosis of cardiac muscles, etc. were observed"
same,subacute toxicity findings,"SD rats [16]; oral, 300 mg/kg/day and higher",Suppression of weight increases and such were observed
same,subacute toxicity findings,"SD rats [16]; oral, 1,500 mg/kg/day",Drooling was observed
same,LD50,"Mice, ICR strain; hypodermic, female",> 10000 mg/kg
same,LD50,"Mice, ICR strain; hypodermic, male",> 10000 mg/kg
same,LD50,"Mice, ICR strain; intravenous, female",> 100 mg/kg
same,LD50,"Mice, ICR strain; intravenous, male",> 100 mg/kg
same,"general symptoms, acute toxicity","Mice, ICR strain; mice","reduced voluntary motions, deep breathing and bradypnea were observed"
same,LD50,"Mice, ICR strain; oral, female",> 10000 mg/kg
same,LD50,"Mice, ICR strain; oral, male",> 10000 mg/kg
same,"cases with improvement in ""hearing"" (SLAT)",[17],one
same,"cases with improvement in ""reading"" (SLAT)",[17],3 cases
same,"cases with improvement in ""repeating"" (SLAT)",[17],2 cases
same,"cases with improvement in ""speaking"" (SLAT)",[17],7 cases
same,"cases with improvement in ""writing"" (SLAT)",[17],6 cases
same,"average improvement rate, SLAT ""hearing"", imperatives",[17]; 100 mg once a day,16%
same,"average improvement rate, SLAT ""hearing"", short sentences",[17]; 100 mg once a day,33%
same,"average improvement rate, SLAT ""reading"", Chinese character words",[17]; 100 mg once a day,10%
same,"average improvement rate, SLAT ""reading"", short sentences",[17]; 100 mg once a day,20%
same,"average improvement rate, SLAT ""repeating""",[17]; 100 mg once a day,10%
same,"average improvement rate, SLAT ""speaking"", actions",[17]; 100 mg once a day,13%
same,"average improvement rate, SLAT ""speaking"", names",[17]; 100 mg once a day,27%
same,"average improvement rate, SLAT ""writing"", Japanese syllabary words",[17]; 100 mg once a day,20%
same,cases with improved SLAT results,[17]; of the 10 cases,8 cases
same,FMS increase,"[18]; 300 mg per day for 2 days plus physical therapy, higher than control cases",2.5±0.5
same,Improvement in FMS,"[18]; brain hemorrhage (BH), 300 mg per day for 2 days plus physical therapy, listed as L-DOPS",Improved; also recorded: No change
same,Improvement in FMS,"[18]; brain infarction (BI), 300 mg per day for 2 days plus physical therapy, listed as L-DOPS",Improved; also recorded: No change
same,Improvement in FMS,"[18]; subarachnoid hemorrhage (SAH), 300 mg per day for 2 days plus physical therapy",Improved
same,cases with improved balance (FMS),[18]; [23],3 cases
same,cases with improvement in lower limb motor function (FMS),[18]; [23],6 cases
same,cases with improvement in upper limb motor function (FMS),[18]; [23],10 cases
same,cases with improved FMS,"[18]; of the 21 cases, 300 mg per day for 2 days plus physical therapy",15 cases
same,"mating rate, conception rate, nidation number, embryo/neonate death, teratogenic actions or fetal development",SD rats [19],no influence was observed
same,"mutagenicity, back mutation testing",microorganisms,no mutagenicity was observed
same,chronic toxicity findings,beagle dogs [20],no abnormality was observed
same,cases with improvement in the 10-meter walking,[21],19 cases
same,cases with central-facial palsy that showed improvement,[22],12 cases
